{"source": "patent US6699459B2", "about": "“Methods of treating lung inflammation” (The Board of Regents of the University of Texas System, priority 2001, dated 2004)", "key": {"RANTES": {"tested_on": "RANTES", "assay": "RSV-induced RANTES secretion in SAE cells (ELISA)", "type": "cell-based, human", "method": "Cell culture and infection of epithelial cells with RSV. A549, human alveolar type II-like epithelial cells (ATCC, Manassas, Va.), were maintained in F12K medium containing 10% (v/v) fetal bovine serum (FBS), 10 mM glutamine, 100 IU/ml penicillin and 100 μg/ml streptomycin. Small alveolar epithelial cells (SAE) were obtained from Clonetics (San Diego, Calif.) and grown according to the company instructions. Cell monolayers were infected with RSV at multiplicity of infection (MOI) of 1 (unless otherwise stated), as described (17). An equivalent amount of a 20% sucrose solution was added to uninfected A549 cells, as a control. For the antioxidant experiments, cells were pretreated with the antioxidants for one hour and then infected in the presence of the antioxidants. Since BHA was diluted in ethanol, equal amounts of ethanol were added to untreated cells, as a control. Total number of cells, cell viability and viral replication, following antioxidant treatment, were measured by trypan blue exclusion and by plaque assay, respectively. RANTES ELISA. Immunoreactive RANTES was quantitated by a double antibody ELISA kit (DuoSet, R&D Systems, Minneapolis, Minn.) following the manufacturer's protocol."}, "RANTES ISRE": {"tested_on": "RANTES ISRE", "assay": "EMSA of RANTES ISRE binding complexes, nuclear extracts of RSV-infected A549 cells", "type": "cell-based, human", "settings": "RSV 12 hours, 400 μM", "method": "(§1) Electrophoretic mobility shift assay (EMSA): Nuclear extracts of uninfected and infected A549 cells were prepared using hypotonic/nonionic detergent lysis, as previously described (20). Proteins were normalized by protein assay (Protein Reagent, Bio-Rad, Hercules, Calif.) and used to bind to a duplex oligonucleotide corresponding to the RANTES ISRE, whose sequences is shown below:\nDNA-binding reactions contained 10-15 μg nuclear proteins, 5% glycerol, 12 mM HEPES, 80 mM NaCl, 5 mM dithiothreitol (DTT), 5 mM Mg2Cl, 0.5 mM EDTA, 1 μg of poly dI-dC and 40,000 cpm of ^32P-labeled double-stranded oligonucleotide in a total volume of 20 μl. The nuclear proteins were incubated with the probe for 15 minutes at room temperature and then fractionated by 6% nondenaturing polyacrylamide gels (PAGE) in TBE buffer (22 mM Tris-HCl, 22 mM boric acid, 0.25 mM EDTA, pH 8). After electrophoretic separation, gels were dried and exposed for autoradiography using Kodak XAR film at −70° C. using intensifying screens."}, "IRF-7": {"tested_on": "IRF-7", "assay": "Western blot of IRF-7 in total cell lysates of RSV-infected A549 cells", "type": "cell-based, human", "settings": "whole cell extracts, RSV 12 hours, 400 μM", "method": "Western Immunoblot. Total cell lysates and cytoplasmic and nuclear proteins were prepared as previously described, fractionated by SDS-PAGE and transferred to PVDF membrane (20). Membranes were blocked with 5% albumin in TBS-Tween and incubated overnight with a rabbit polyclonal antibody to IRF-1, -3 and -7 (Santa Cruz Biotech, Santa Cruz, Calif.). For secondary detection, a horseradish-coupled anti-rabbit or anti-mouse antibody was used in the enhanced chemiluminescence assay (Amersham Pharmacia Biotec, Arlington Heights, Ill.)."}, "IRF-1 mRNA": {"tested_on": "IRF-1 mRNA", "assay": "Northern blot of IRF-1 mRNA in RSV-infected A549 cells", "type": "cell-based, human", "settings": "400 μM", "method": "Northern Blot. Total RNA was extracted from control and infected A549 cells by the acid guanidium thiocyanate-phenol chloroform method (18). Twenty micrograms of RNA were fractionated on a 1.2% agarose-formaldehyde gel, transferred to nylon membranes and hybridized to a radiolabeled RANTES, IRF-1, -3 and -7 cDNAs, as previously described (19). Hybridization temperature for all probes was 55° C. After washing, membranes were exposed for autoradiography using Kodak XAR film at −70° C. using intensifying screens. After exposure, membranes were stripped and rehybridized with a β-actin probe."}, "human IRF-1 promoter": {"tested_on": "human IRF-1 promoter", "assay": "IRF-1 promoter luciferase reporter in A549 cells", "type": "cell-based", "method": "(§2) Cell transfection. To investigate IRF-1 and -7 gene transcription, A549 cells were transiently transfected with the IRF-1 or -7 promoter, linked to the luciferase reporter gene. Logarithmically growing A549 cells were transfected in triplicate in 60 mm petri dishes by DEAE-Dextran, as previously described (20). Cells were incubated in 2 ml of HEPES buffered DMEM (10 mM Hepes, pH 7.4) containing 20 μl of 60 mg/ml DEAE-Dextran (Amersham Pharmacia Biotec, Arlington Heights, Ill.) premixed with 6 μg of either IRF-1 or -7 plasmids and 1 μg CMV-β galactosidase internal control plasmid. After 3 hours, media was removed and 0.5 ml of 10% (v/v) DMSO in PBS was added to the cells for 2 minutes. Cells were washed with PBS and cultured overnight in 10% FBS/DMEM. The next morning, cells were infected with RSV and cells were lysed at different times post-infectionto measure independently luciferase and galactosidase reporter activity, as previously described (20). Luciferase was normalized to the internal control galactosidase activity. All experiments were performed in duplicate or triplicate."}, "human IRF-7 promoter": {"tested_on": "human IRF-7 promoter", "assay": "IRF-7 promoter luciferase reporter in A549 cells", "type": "cell-based", "method": "as §2"}, "IRF-1 GAS": {"tested_on": "IRF-1 GAS", "assay": "EMSA of IRF-1 GAS binding complexes, nuclear extracts of RSV-infected A549 cells", "type": "cell-based, human", "settings": "RSV 6 hours, 400 μM", "method": "as §1, with “the IRF-1 gamma interferon activated sequence (GAS) and IRF-7” for “the RANTES”, “sequences are” for “sequences is”, “shown below.” for “shown below:”\nDNA-binding reactions contained 10-15 μg nuclear proteins, 5% glycerol, 12 mM HEPES, 80 mM NaCl, 5 mM DTT, 5 mM Mg2Cl, 0.5 mM EDTA, 1 μg of poly dI-dC and 40,000 cpm of ^32P-labeled double-stranded oligonucleotide in a total volume of 20 μl. The nuclear proteins were incubated with the probe for 15 minutes at room temperature and then fractionated by 4% nondenaturing polyacrylamide gels (PAGE) in 0.5× TBE buffer (22 mM Tris-HCl, 22 mM boric acid, 0.25 MM EDTA, pH 8), at 120 volts. After electrophoretic separation, gels were dried and exposed for autoradiography using Kodak XAR film at −70° C. using intensifying screens. In the gel mobility supershift, commercial antibodies against specific transcription factors were added to the binding reactions and incubated on ice for one hour prior to fractionation on 6% PAGE."}}}
{"smiles": "COc1ccc(O)c(C(C)(C)C)c1", "note": "[BHA, butylated hydroxyanisol]", "values": [{"measurement": "effectiveness in reducing RSV-induced RANTES secretion, compared among the antioxidants", "setting": "RANTES", "result": "most effective"}, {"measurement": "RSV-induced RANTES production", "setting": "RANTES; 400 μM, 24 hours, ELISA", "result": "significantly reduced"}, {"measurement": "RSV-induced RANTES ISRE binding", "setting": "RANTES ISRE", "result": "completely abolished"}, {"measurement": "RSV-induced IRF-7 protein synthesis", "setting": "IRF-7", "result": "almost completely abolished"}, {"measurement": "IRF-1 mRNA accumulation", "setting": "IRF-1 mRNA; 6 and 12 hours post-infection", "result": "almost completely blocked"}, {"measurement": "IRF-1 mRNA accumulation", "setting": "IRF-1 mRNA; 24 hours post-infection", "result": "significantly reduced"}, {"measurement": "basal level of transcription (IRF-1 promoter)", "setting": "human IRF-1 promoter; A549 cells", "result": "did not affect"}, {"measurement": "RSV-induced luciferase activity (IRF-1 promoter)", "setting": "human IRF-1 promoter; RSV 12 hours, 400 μM", "result": "completely abolished"}, {"measurement": "basal level of transcription (IRF-7 promoter)", "setting": "human IRF-7 promoter; A549 cells", "result": "did not affect"}, {"measurement": "RSV-induced luciferase activity (IRF-7 promoter)", "setting": "human IRF-7 promoter; RSV 6 hours, 400 μM", "result": "completely abolished"}, {"measurement": "RSV-induced STAT binding to the IRF-1 GAS", "setting": "IRF-1 GAS", "result": "completely abolished"}]}
